Measured values reported in patent publication US10294202B2, “Pyrrolidinones as herbicides” (FMC Corporation, priority 2013, dated 2019).

Tests used:
barnyardgrass = experiment: Test F flood (paddy) test; assay type: in vivo, Echinochloa crus-galli; settings: 21 d, scale 0-100
Excerpt: Three plastic pots (ca. 16-cm diameter) per rate were partially filled with sterilized Tama silt loam soil comprising a 35:50:15 ratio of sand, silt and clay and 2.6% organic matter. Separate plantings for each of the three pots were as follows. Seeds from the U.S. of monochoria (Monochoria vaginalis), sedge, umbrella (small-flower umbrella sedge, Cyperus difformis), bulrush, […] bulrush, Scirpus juncoides), and […] (purple […] coccinea), were planted into one 16-cm pot for each rate. Seeds from the U.S. of flatsedge, rice (rice flatsedge, Cyperus iria), sprangletop, Brdd. (bearded sprangletop, Leptochloa fascicularis), one stand of 9 or 10 water seeded rice seedlings (Rice, W.S. Jap, Oryza sativa cv. 'Japonica-[…]' or Rice, W.S. Ind, 'Indica'), and two stands of 3 or 4 seedlings of rice, transplanted (transplanted rice, Oryza sativa cv. 'Japonica-[…]') were planted into one 16-cm pot for each rate. Seeds from the U.S. of barnyardgrass (Echinochloa crus-galli), […] (common […], Alisma plantago-aquatica), and watergrass, late (late watergrass, Echinochloa oryzicola) were planted into one 16-cm pot for each rate. Plantings were sequential so that crop and weed species were at the 2.0 to 2.5-leaf stage at time of treatment. Potted plants were grown in a greenhouse with day/night temperature settings of 30/27° C., and supplemental balanced lighting was provided to maintain a 16-h photoperiod. Test pots were maintained in the greenhouse until test completion. At time of treatment, test pots were flooded to 3 cm above the soil surface, treated by application of test compounds directly to the paddy water, and then maintained at that water depth for the duration of the test. Effects of treatments on rice and weeds were visually evaluated by comparison to untreated controls after 21 d. Plant response ratings, summarized in Table F, are based on a scale of 0 to 100 where 0 is no effect and 100 is complete control. A dash (-) response means no test result.

field violet = experiment: Test D pre-/postemergence herbicide test; assay type: in vivo, Viola arvensis; settings: for Plant response rating: Field Violet, scale 0 to 100; for Plant response rating, Field Violet: scale 0 to 100 (0 no effect, 100 complete control)
Excerpt: (§1) Seeds of plant species selected from bluegrass (annual bluegrass, Poa annua), blackgrass (Alopecurus myosuroides), canarygrass (littleseed canarygrass, Phalaris minor), chickweed (common chickweed, Stellaria media), galium (catchweed bedstraw, Galium aparine), bromegrass, downy (downy bromegrass, Bromus tectorum), field poppy (Papaver rhoeas), field violet (Viola arvensis), foxtail, green (green foxtail, Setaria viridis), deadnettle (henbit deadnettle, Lamium amplexicaule), ryegrass, Italian (Italian ryegrass, Lolium multiflorum), kochia (Kochia scoparia), lambsquarters (Chenopodium album), oilseed rape (Brassica napus), pigweed (Amaranthus retroflexus), chamomile (scentless chamomile, Matricaria inodora), Russian thistle (Salsola kali), speedwell (bird's-eye speedwell, Veronica persica), barley, spring (spring barley, Hordeum vulgare), wheat, spring (spring wheat, Triticum aestivum), buckwheat, wild (wild buckwheat, Polygonum convolvulus), mustard, wild (wild mustard, Sinapis arvensis), oat, wild (wild oat, Avena fatua), radish, wild (wild radish, Raphanus raphanistrum), […]), barley, winter (winter barley, Hordeum vulgare), and wheat, winter (winter wheat, Triticum aestivum) were planted into a silt loam soil and treated preemergence with test chemicals formulated in a non-phytotoxic solvent mixture which included a surfactant. At the same time, these species were planted in pots containing Redi-Earth® planting medium (Scotts Company, 14111 Scottslawn Road, Marysville, Ohio 43041) comprising spaghnum peat moss, vermiculite, wetting agent and starter nutrients and treated with postemergence applications of the test chemicals formulated in the same manner. Plants ranged in height from 2 to 18 cm (1- to 4-leaf stage). Treated plants and controls were maintained in a controlled growth environment for 7 to 21 days after which time all species were compared to controls and visually evaluated. Plant response ratings, summarized in Table D, are based on a scale of 0 to 100 where 0 is no effect and 100 is complete control. A dash (-) response means no test result.

oat, wild = experiment: Test D pre-/postemergence herbicide test; assay type: in vivo, Avena fatua; settings: for Plant response rating: Postemergence, Oat, Wild, scale 0 to 100; for Plant response rating, Oat, Wild: Preemergence, scale 0 to 100 (0 no effect, 100 complete control)
Excerpt: as §1

| Compound | Plant response rating, Barnyardgrass (barnyardgrass; 125 g ai/ha) | Plant response rating, Barnyardgrass (barnyardgrass; 250 g ai/ha) | Plant response rating, Barnyardgrass (barnyardgrass; 500 g ai/ha) | Plant response rating (field violet; Postemergence, 16 g ai/ha) | Plant response rating (field violet; Postemergence, 31 g ai/ha) | Plant response rating (field violet; Postemergence, 62 g ai/ha) | Plant response rating (field violet; Postemergence, 125 g ai/ha) | Plant response rating (field violet; Postemergence, 250 g ai/ha) | Plant response rating (oat, wild; 16 g ai/ha) | Plant response rating (oat, wild; 31 g ai/ha) | Plant response rating (oat, wild; 62 g ai/ha) | Plant response rating (oat, wild; 125 g ai/ha) | Plant response rating (oat, wild; 250 g ai/ha) | Plant response rating, Oat, Wild (oat, wild; 62 g ai/ha) | Plant response rating, Oat, Wild (oat, wild; 125 g ai/ha) | Plant response rating, Oat, Wild (oat, wild; 16 g ai/ha) | Plant response rating, Oat, Wild (oat, wild; 31 g ai/ha) | Plant response rating, Oat, Wild (oat, wild; 250 g ai/ha) | Plant response rating, Field Violet (field violet; Preemergence, 62 g ai/ha) | Plant response rating, Field Violet (field violet; Preemergence, 31 g ai/ha) | other results |
| --- | --- | --- | --- | --- | --- | --- | --- | --- | --- | --- | --- | --- | --- | --- | --- | --- | --- | --- | --- | --- | --- |
| CN1CC(c2ccc(F)c(F)c2)C(C(=O)Nc2cccc(F)c2F)C1=O (stereo not shown) [Compound 303] | 100 | 100 | 100 | – | – | – | – | – | – | – | – | – | – | – | – | – | – | – | – | – | Plant response rating, Barnyardgrass (barnyardgrass; 62 g ai/ha): 100 |
| O=C1NCC(c2ccc(Cl)c(F)c2)C1C(=O)Nc1cccc(F)c1F (stereo not shown) [Compound 52] | – | – | – | 0 | 0 | 0 | 0 | 0 | 0 | 0 | 0 | 0 | 0 | 0 | 0 | 0 | 0 | 0 | – | – | – |
| O=C1NCC(c2ccc(F)c(C(F)(F)F)c2)C1C(=O)Nc1cccc(F)c1F (racemic) [Compound 77] | – | – | – | – | – | – | – | – | – | – | – | – | – | 15 | 20 | – | 10 | 45 | 20 | 15 | Plant response rating (field violet; Preemergence, 125 g ai/ha): 20; Plant response rating (field violet; Preemergence, 250 g ai/ha): 55 |
| O=C1NCC(c2ccc(F)c(F)c2)C1C(=O)Nc1cccc(F)c1F (racemic) [Compound 101] | 85 | 85 | 90 | – | – | – | – | – | – | – | – | – | – | – | – | – | – | – | – | – | Plant response rating, Barnyardgrass (barnyardgrass; 64 g ai/ha): 60 |
| O=C1NCC(c2cc(F)c(F)cc2F)C1C(=O)Nc1cccc(F)c1F (stereo not shown) [Compound 50] | – | – | – | 0 | 0 | 0 | 0 | – | 0 | 0 | 0 | 0 | – | 0 | 0 | 0 | 0 | – | 0 | 0 | Plant response rating, Field Violet (field violet; Preemergence, 16 g ai/ha): 0; Plant response rating (field violet; Preemergence, 125 g ai/ha): 0 |
| O=C1NCC(c2ccc(C(F)(F)F)cc2)C1C(=O)Nc1ccccc1F (stereo not shown) [Compound 231] | – | – | – | – | 20 | 20 | 10 | 25 | – | 5 | 10 | 10 | 10 | 20 | 25 | – | 20 | 30 | 0 | 0 | Plant response rating, Field Violet (field violet; Preemergence, 125 g ai/ha): 10; Plant response rating (field violet; Preemergence, 250 g ai/ha): 0 |
| O=C1NCCC1C(=O)N(c1ccc(F)c(F)c1)c1ccccc1F (stereo not shown) [Compound 5, N-(3,4-difluorophenyl)-N-(2-fluorophenyl)-2-oxo-3-pyrrolidinecarboxamide] | 55 | 65 | 75 | – | – | – | – | – | – | – | – | – | – | – | – | – | – | – | – | – | Plant response rating, Barnyardgrass (barnyardgrass; 1000 g ai/ha): 90; Plant response rating, Barnyardgrass (barnyardgrass; 2000 g ai/ha): 90 |
| O=C1NCC(c2ccc(F)c(F)c2)C1C(=O)Nc1ccccc1C(F)(F)F (racemic) [Compound 6] | – | – | – | 0 | 0 | 20 | 20 | 25 | 0 | 0 | 0 | 0 | 5 | 0 | 0 | 0 | 0 | 0 | 0 | 0 | Plant response rating, Field Violet (field violet; Preemergence, 16 g ai/ha): 0; Plant response rating (field violet; Preemergence, 125 g ai/ha): 0; Plant response rating (field violet; Preemergence, 250 g ai/ha): 0 |
| O=C1NCC(c2cccc(C(F)F)c2)C1C(=O)Nc1ccccc1F (racemic) [Compound 210] | 75 | 100 | 100 | – | – | – | – | – | – | – | – | – | – | – | – | – | – | – | – | – | – |
